Experiment [1] has as its system Respiratory syncytial virus recombinant with luciferase (RSV-Luc5). Kind of experiment: NHBE RSV-Luc5 384-well assay (EC50 RSVFLUC NHBE-384). The experiment is classed as cell-based. Particulars: human respiratory syncytial virus, 72 h, read-out: EC50 RSV FLUC NHBE 384 V2 (per Ex. U). The text has this: Example U. NHBE RSV-Luc5 384-Well Assay (EC50 RSVFLUC NHBE-384)
Normal Human Bronchial Epithelial (NHBE) cells were purchased from Lonza (Walkersville, MD Cat #CC2540) and maintained in BEGM Bronchial Epithelial Cell Growth Medium BulletKit (Lonza CC-3170).
Cells were thawed, expanded, and were used for experiments at passage 2. Respiratory syncytial virus recombinant with luciferase (RSV-Luc5) (≥1×107 Infectious Units/ml (IU/ml) determined by TCID50) was purchased from Microbiologics (Saint Cloud, MN). Viral replication was determined in NHBE cells in the following manner.
Compounds are prepared in 100% DMSO in 384-well polypropylene plates (Greiner, Monroe, NC, Cat #784201) with 8 compounds per plate in grouped replicates of 4 at 10 serially diluted concentrations (1:3). The serially diluted compounds were transferred to low dead volume Echo plates (Labcyte, Sunnyvale, CA, Cat #LP-0200).
The test compounds were spotted to 384-well assay plates (Greiner, Monroe, NC, Cat #781091) at 200 nL per well. NHBE cells were harvested and suspended in BEGM Bronchial Epithelial Cell Growth Medium BulletKit and seeded to the pre-spotted assay plates at 5,000 cells per well in 30 μL. RSV-Luc5 virus was diluted in BEGM Bronchial Epithelial Cell Growth Medium BulletKit at 500,000 Infectious Units (IU) per mL and 10 μL per well was added to the assay plates containing cells and compounds, for an MOI of 1. The assay plates were incubated for 3 days at 37° C. and 5% CO2. At the end of incubation, One-Glo reagent (Promega, Madison, WI, Cat #E6120) was prepared. The assay plates and One-Glo reagent were equilibrated to room temperature for at least 15 minutes. 40 μL per well of One-Glo reagent was added and the plates were incubated at room temperature for 15 minutes before reading the luminescence signal on an En Vision multimode plate reader (Perkin Elmer, Waltham, MA). Remdesivir was used as positive control and DMSO was used as negative control. Values were normalized to the positive and negative controls (as 0% and 100% replication, respectively) and data was fitted using non-linear regression analysis by Gilead's dose response tool. The EC50 value for each compound was defined as the concentration reducing the viral replication by 50%.

The test system of experiment [2] is RSV strain A2. Kind of experiment: RSV Cellomics assay for RSV A2 antiviral activity (EC50-RSV-Hep2-96-Cellomics). Particulars: human respiratory syncytial virus, HEp-2, 72 h; Hep2 cells, RSV strain A2, MOI=0.05, 3 days, RSV F protein immunofluorescence; read-out: EC50-RSV-HEp2-96-Cellomics Example B1. The experiment is classed as cell-based. The method, then: Example B1: RSV Cellomics Assay for RSV A2 Antiviral Activity (EC50-RSV-Hep2-96-Cellomics)
8×10^3 Hep2 cells are seeded into 96 well plates in 100 μL of media (DMEM supplemented with GlutaMAX, 10% FBS and Pen/Strep) and briefly spun at 50×g for 1 minute to attach cells. Cells were further allowed to attach with overnight incubation at 37° C.+5% CO2. The following day, the media was aspirated and 100 μL of fresh DMEM media containing 2% FBS was added. A three-fold dilution series of compounds of interest are then added to the plate using the Tecan D300e dispenser and the plate is normalized to the well with the highest volume of DMSO. The cells are next infected by adding 100 μL of media containing RSV strain A2 at an MOI=0.05 and the plates incubated for 3 days at 37° C.+5% CO2. Following the incubation, the media is removed, and the cells are washed once with 250 μL PBS and fixed with 250 μL ice-cold 100% methanol for 10 minutes at 4 C. The methanol is then removed and the plates air dried for 5 minutes and then washed once with 250 μL PBS to remove any residual methanol. The wells are then blocked 60 μL/well of BlockAid (B10710, Thermo-Fisher) for 1 hour at RT on rocker at which point the blocking buffer is carefully aspirated. Primary antibody against the RSV F protein (MAB 858-1) is then diluted 1:2000 in SuperBlock (37515, Thermo Fisher) and 50 μL of the primary antibody solution is added to each well. The plates are incubated at room temperature for 1 hour with gentle agitation and then washed with 250 μL of PBS-Tween 3 times. A goat anti-mouse AlexaFluor 647 conjugated secondary antibody (Sigma, A21235) is then diluted 1:2000 and Hoescht 33342 (H3570) at 1:1000 in SuperBlock and 50 μL added to the wells for 1 hour at 37° C. After incubation the antibody solution is aspirated, and the wells are then washed with 250 μL of PBS-Tween 3 times. To keep cells from drying out, 100 μL of PBS is added to each well and the plates are sealed with black plate seal. Fluorescence at the 647 nm wavelength is measured using a Cellomics CellInsight CX7 machine. Compound activity is determined as a percentage of the % positive cells (or average intensity) compared to DMSO treated RSV infected well controls following subtraction of uninfected controls. The EC50 values are then calculated using nonlinear regression analysis in GraphPad Prism.

Usually EC50 stands for the midpoint of the concentration-response curve. `CN(C)CCNc1cccc(CO[C@@H](CCCCCCCCCCCCCCCCCC(F)(F)F)COP(=O)(O)OC[C@@]2(C#N)O[C@@H](c3ccc4c(N)ncnn34)[C@H](O)[C@@H]2O)c1` [Compound 11, ((2R,3S,4R,5S)-5-(4-aminopyrrolo[2,1-f][1,2,4]triazin-7-yl)-2-cyano-3,4-dihydroxytetrahydrofuran-2-yl)methyl ((S)-2-((3-((2-(dimethylamino)ethyl)amino)benzyl)oxy)-20,20,20-trifluoroicosyl) hydrogen phosphate]: the EC50 in experiment [1] is 4590 nM; in experiment [2] it was 12600 nM.
For `COc1cc(C#N)ccc1CO[C@@H](CCCCCCCCCCCCCCCCCC(F)(F)F)COP(=O)(O)OC[C@@]1(C#N)O[C@@H](c2ccc3c(N)ncnn23)[C@H](O)[C@@H]1O` [Compound 9, ((2R,3S,4R,5S)-5-(4-aminopyrrolo[2,1-f][1,2,4]triazin-7-yl)-2-cyano-3,4-dihydroxytetrahydrofuran-2-yl)methyl ((S)-2-((4-cyano-2-methoxybenzyl)oxy)-20,20,20-trifluoroicosyl) hydrogen phosphate], the EC50 was found to be 265 nM in experiment [1] and 215 nM in experiment [2].
For the molecule `N#C[C@]1(COP(=O)(O)OC[C@H](CCCCCCCCCCCCCCCCCC(F)(F)F)OCc2ccc3ccccc3n2)O[C@@H](c2ccc3c(N)ncnn23)[C@H](O)[C@@H]1O` [Compound 7, ((2R,3S,4R,5S)-5-(4-aminopyrrolo[2,1-f][1,2,4]triazin-7-yl)-2-cyano-3,4-dihydroxytetrahydrofuran-2-yl)methyl ((S)-20,20,20-trifluoro-2-(quinolin-2-ylmethoxy)icosyl) hydrogen phosphate], the EC50 in experiment [1] worked out at 714 nM; in experiment [2], 1400 nM.
For `N#Cc1cc(F)cc(CO[C@@H](CCCCCCCCCCCCCCCCC(F)(F)F)COP(=O)(O)OC[C@@]2(C#N)O[C@@H](c3ccc4c(N)ncnn34)[C@H](O)[C@@H]2O)c1` [Compound 6, ((2R,3S,4R,5S)-5-(4-aminopyrrolo[2,1-f][1,2,4]triazin-7-yl)-2-cyano-3,4-dihydroxytetrahydrofuran-2-yl)methyl ((S)-2-((3-cyano-5-fluorobenzyl)oxy)-19,19,19-trifluorononadecyl) hydrogen phosphate], in that order: 86 nM and 293 nM.
The corresponding values for `N#Cc1cc(F)cc(CO[C@@H](CCCCCCCCCCCCCCCCCC(F)(F)F)COP(=O)(O)OC[C@@]2(C#N)O[C@@H](c3ccc4c(N)ncnn34)[C@H](O)[C@@H]2O)c1` [Compound 3, ((2R,3S,4R,5S)-5-(4-aminopyrrolo[2,1-f][1,2,4]triazin-7-yl)-2-cyano-3,4-dihydroxytetrahydrofuran-2-yl)methyl ((S)-2-((3-cyano-5-fluorobenzyl)oxy)-20,20,20-trifluoroicosyl) hydrogen phosphate] are 44 nM and 421 nM.
As to `N#Cc1cc(F)cc(CO[C@H](CCCCCCCCCCCCCCCCCC(F)(F)F)COP(=O)(O)OC[C@@]2(C#N)O[C@@H](c3ccc4c(N)ncnn34)[C@H](O)[C@@H]2O)c1` [Compound 10, ((2R,3S,4R,5S)-5-(4-aminopyrrolo[2,1-f][1,2,4]triazin-7-yl)-2-cyano-3,4-dihydroxytetrahydrofuran-2-yl)methyl ((R)-2-((3-cyano-5-fluorobenzyl)oxy)-20,20,20-trifluoroicosyl) hydrogen phosphate], the EC50 is 117 nM in experiment [1] and 127 nM in experiment [2].
For `N#Cc1cc(F)cc(CO[C@H](CCCCCCCCCCCCCCCCCCCC(F)(F)F)COP(=O)(O)OC[C@@]2(C#N)O[C@@H](c3ccc4c(N)ncnn34)[C@H](O)[C@@H]2O)c1` [Compound 8, ((2R,3S,4R,5S)-5-(4-aminopyrrolo[2,1-f][1,2,4]triazin-7-yl)-2-cyano-3,4-dihydroxytetrahydrofuran-2-yl)methyl ((R)-2-((3-cyano-5-fluorobenzyl)oxy)-22,22,22-trifluorodocosyl) hydrogen phosphate], in that order: 134 nM and 237 nM.
With `N#Cc1cc(F)cc(CO[C@H](CCCCCCCCCCCCCCCCC(F)F)COP(=O)(O)OC[C@@]2(C#N)O[C@@H](c3ccc4c(N)ncnn34)[C@H](O)[C@@H]2O)c1` [Compound 4, ((2R,3S,4R,5S)-5-(4-aminopyrrolo[2,1-f][1,2,4]triazin-7-yl)-2-cyano-3,4-dihydroxytetrahydrofuran-2-yl)methyl ((R)-2-((3-cyano-5-fluorobenzyl)oxy)-19,19-difluorononadecyl) hydrogen phosphate], the EC50 in experiment [1] worked out at 107 nM; in experiment [2] it was 170 nM.
For `N#C[C@]1(COP(=O)(O)OCCCCCCCCCCCCCCCCCCCC(F)(F)F)O[C@@H](c2ccc3c(N)ncnn23)[C@H](O)[C@@H]1O` [Compound 5, ((2R,3S,4R,5S)-5-(4-aminopyrrolo[2,1-f][1,2,4]triazin-7-yl)-2-cyano-3,4-dihydroxytetrahydrofuran-2-yl)methyl (20,20,20-trifluoroicosyl) hydrogen phosphate], in that order: 4460 nM and 3420 nM.

These data come from patent US20240309028A1, “PHOSPHOLIPID COMPOUNDS AND METHODS OF MAKING AND USING THE SAME” (Gilead Sciences, Inc., priority 2023, published 2024).
